PMC6722883 (FEBS Open Bio, 2019)

Test: physchem
Details: buffer or solvent, pH 7.2

CC[C@H](C)[C@@H]1NC(=O)[C@@H]2CCCN2C(=O)[C@H](CO)NC(=O)[C@H](CCSC)NC(=O)[C@H](C)NC(=O)[C@H](CO)NC(=O)[C@@H]2CSSC[C@H](NC(=O)CN)C(=O)N[C@@H](CSSC[C@@H](C(N)=O)NC1=O)C(=O)N[C@@H](CO)C(=O)N[C@@H](Cc1cnc[nH]1)C(=O)N1CCC[C@H]1C(=O)N[C@@H](C(C)C)C(=O)N2 [TxID, α‐Conotoxin TxID]
remaining at 4 h: ~50%
